This note sets out measurements from patent US12643912B2, “Macrocyclic compounds, a process for their preparation and pharmaceutical compositions containing them” (LES LABORATOIRES SERVIER, priority 2020, dated 2026).

Where two headings read alike, the source gives them in different places.

Assay [1] concerns Nrf2 (Keap1-NRF2 nuclear translocation). As to the kind of experiment: U2OS translocation assay (PathHunter U2OS Keap1-NRF2 Nuclear Translocation Cell Line). Format: cell-based. The essentials: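 Enzyme-fragment complementation read-out: luminescence after 60 min of detection reagent at room temperature, following a 3 h, 37° C compound exposure of engineered U2OS Keap1-NRF2 translocation cells (1% FBS medium). Signal scaled from 1% DMSO basal to 10 μM andrographolide maximum.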

The target in assay [2] is T1, Keap1 (A321-C624) (h) (Homo sapiens, UniProt Q14145).
T1 construct: His-Thromb-KEAP1(A321-C624) acquired from Novalix (batch PU-P01) was immobilized covalently by amine coupling; His tag (N); thrombin cleavage site (Thromb) (N); purchased Novalix batch PU-P01
T1 sequence (Q14145 321-624): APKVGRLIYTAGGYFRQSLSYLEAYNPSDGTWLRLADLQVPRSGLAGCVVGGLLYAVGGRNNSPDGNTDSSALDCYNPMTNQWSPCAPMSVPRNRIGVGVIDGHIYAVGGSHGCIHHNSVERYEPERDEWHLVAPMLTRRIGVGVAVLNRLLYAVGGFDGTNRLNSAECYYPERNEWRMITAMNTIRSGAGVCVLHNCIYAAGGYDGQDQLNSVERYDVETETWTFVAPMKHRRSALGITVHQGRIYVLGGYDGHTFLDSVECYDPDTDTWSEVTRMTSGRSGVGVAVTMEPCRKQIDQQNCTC
Description: Surface Plasmon Resonance binding assay to Kelch domain of KEAP1. The settings on record: Biacore T200, 25° C., immobilized His-Thromb-KEAP1(A321-C624), single cycle kinetics, KD=kd/ka from 1:1 fit; read-out: Keap1 (A321-C624) (h) direct/SPR (KD). The essentials:
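His-Thromb-KEAP1(A321-C624) amine-coupled on CM5 chip to 1250 RU; amine blank reference. Run at 25° C in HEPES pH 7.4, 150 mM NaCl, 3 mM EDTA, 1 mM TCEP, 0.05% P20, 5% DMSO; 180 s association, 720 s dissociation, 50 μL/min. KD = kd/ka from 1:1 kinetic fit, double-referenced, DMSO solvent-corrected.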
For orientation: In SPR one partner is held on a chip, and binding of the other changes the refractive index at the surface.

Setting [3] is: read-out: CELLULAR U2OS EC50, U2OS Keap1-NRF2 nuclear translocation cells, 3 h incubation, luminescence, normalized between 1% DMSO and 10 μM andrographolide.
[4] abbreviates: Homo sapiens, U2OS, 3 h, read-out: CELLULAR U2OS EC50 (nM), U2OS Keap1-NRF2 nuclear translocation cells, 3 h incubation, luminescence, normalized between 1% DMSO and 10 μM andrographolide.

For the compound `COc1cc2cc(c1OC)CN1Cc3cc(ccc3OS1(=O)=O)OCCCCn1nnc3c(C)c(ccc31)C2CC(=O)O` (single isomer, unassigned) [Example 35b, [4,5-Dimethoxy-31-methyl-27,27-dioxo-21,26-dioxa-27λ^6-thia-1,14,15,16-tetraazahexacyclo[20.5.3.1^3,70.1^9,130.0^12,160.0^25,29]dotriaconta-3(32),4,6,9(31),10,12,14,22,24,29-decaen-8-yl]acetic acid], in assay [1] (setting [3]), the EC50 (in general, the concentration at which the effect is half-maximal) was above 3160 nM. In addition, the Kd in assay [2] was 7450 nM.

Turning to `Cc1cc2cc(c1Cl)CN1Cc3cc(ccc3OS1(=O)=O)OCCCCn1nnc3c(C)c(ccc31)C2CC(=O)O` (single isomer, unassigned) [Example 36a, [4-Chloro-5,31-dimethyl-27,27-dioxo-21,26-dioxa-27λ^6-thia-1,14,15,16-tetraazahexacyclo[20.5.3.1^3,70.1^9,130.0^12,160.0^25,29]dotriaconta-3(32),4,6,9(31),10,12,14,22,24,29-decaen-8-yl]acetic acid], in assay [1] (setting [3]), the EC50 was 126 nM. The Kd in assay [2] was determined as 9.02 nM.

For the compound `Cc1cc2cc(c1Cl)CN1Cc3cc(ccc3OS1(=O)=O)OCCCCn1nnc3c(C)c(ccc31)C2CC(=O)O` (single isomer, unassigned) [Example 36b, [4-Chloro-5,31-dimethyl-27,27-dioxo-21,26-dioxa-27λ^6-thia-1,14,15,16-tetraazahexacyclo[20.5.3.1^3,70.1^9,130.0^12,160.0^25,29]dotriaconta-3(32),4,6,9(31),10,12,14,22,24,29-decaen-8-yl]acetic acid], the EC50 in assay [1] (setting [3]) turned out to be 1260 nM. Moreover, in assay [2], the Kd is 32.5 nM.

Take `COc1c(Cl)cc2cc1CN1Cc3cc(ccc3OS1(=O)=O)OCCCCn1nnc3c(C)c(ccc31)C2CC(=O)O` (single isomer, unassigned) [Example 37a, [5-Chloro-4-methoxy-31-methyl-27,27-dioxo-21,26-dioxa-27λ^6-thia-1,14,15,16-tetraazahexacyclo[20.5.3.1^3,70.1^9,130.0^12,160.0^25,29]dotriaconta-3(32),4,6,9(31),10,12,14,22,24,29-decaen-8-yl]acetic acid]: the EC50 in assay [1] (setting [3]) was 1300 nM. The Kd in assay [2] amounted to 75.1 nM.

With `COc1c(Cl)cc2cc1CN1Cc3cc(ccc3OS1(=O)=O)OCCCCn1nnc3c(C)c(ccc31)C2CC(=O)O` (single isomer, unassigned) [Example 37b, [5-Chloro-4-methoxy-31-methyl-27,27-dioxo-21,26-dioxa-27λ^6-thia-1,14,15,16-tetraazahexacyclo[20.5.3.1^3,70.1^9,130.0^12,160.0^25,29]dotriaconta-3(32),4,6,9(31),10,12,14,22,24,29-decaen-8-yl]acetic acid], the EC50 in assay [1] (setting [3]) was above 3160 nM. Also, the Kd in assay [2] came out at 529 nM.

`COc1cc2cc(c1Cl)CN1Cc3cc(ccc3OS1(=O)=O)OCCCCn1nnc3c(C)c(ccc31)C2CC(=O)O` (single isomer, unassigned) [Example 38b, [4-Chloro-5-methoxy-31-methyl-27,27-dioxo-21,26-dioxa-27λ^6-thia-1,14,15,16-tetraazahexacyclo[20.5.3.1^3,70.1^9,130.0^12,160.0^25,29]dotriaconta-3(32),4,6,9(31),10,12,14,22,24,29-decaen-8-yl]acetic acid]: the EC50 in assay [1] (setting [4]) is above 3160 nM. In addition, in assay [2], the Kd was 604 nM.

For `Cc1ccc2cc1CN1Cc3cc(ccc3N(C)S1(=O)=O)OCCCCn1nnc3c(C)c(ccc31)C2CC(=O)O` (single isomer, unassigned) [Example 39a, [4,26,31-Trimethyl-27,27-dioxo-21-oxa-27λ^6-thia-1,14,15,16,26-pentaazahexacyclo[20.5.3.1^3,70.1^9,130.0^12,160.0^25,29]dotriaconta-3(32),4,6,9(31),10,12,14,22,24,29-decaen-8-yl]acetic acid], the EC50 in assay [1] (setting [3]) amounted to 14.2 nM. The Kd in assay [2] came out at 0.137 nM.

For `Cc1ccc2cc1CN1Cc3cc(ccc3N(C)S1(=O)=O)OCCCCn1nnc3c(C)c(ccc31)C2CC(=O)O` (single isomer, unassigned) [Example 39b, [4,26,31-Trimethyl-27,27-dioxo-21-oxa-27λ^6-thia-1,14,15,16,26-pentaazahexacyclo[20.5.3.1^3,70.1^9,130.0^12,160.0^25,29]dotriaconta-3(32),4,6,9(31),10,12,14,22,24,29-decaen-8-yl]acetic acid], in assay [1] (setting [3]), the EC50 was found to be 79.5 nM. The Kd in assay [2] is 0.685 nM.

Turning to `Cc1ccc2cc1CN1Cc3cc(ccc3OS1(=O)=O)OC[C@H](C)CCn1nnc3c(C)c(ccc31)C2CC(=O)O` (single isomer, unassigned) [Example 45a], in assay [1] (setting [3]), the EC50 stood at 11.8 nM. Besides, in assay [2], the Kd stood at 0.594 nM.

As to `Cc1ccc2cc1CN1Cc3cc(ccc3OS1(=O)=O)OC[C@H](C)CCn1nnc3c(C)c(ccc31)C2CC(=O)O` (single isomer, unassigned) [Example 45b], the EC50 in assay [1] (setting [3]) was determined as 144 nM. The Kd in assay [2] came out at 2.35 nM.

For the compound `COc1ccc2cc1CN1Cc3cc(ccc3OS1(=O)=O)OCc1ccccc1OCCCCn1nnc3c(C)c(ccc31)C2CC(=O)O` (single isomer, unassigned) [Example 53a, [4-Methoxy-39-methyl-35,35-dioxo-21,29,34-trioxa-35λ^6-thia-1,14,15,16-tetraazaheptacyclo[28.5.3.1^3,70.1^9,130.0^12,160.0^22,270.0^33,37]tetraconta-3(40),4,6,9(39),10,12,14,22,24,26,30,32,37-tridecaen-8-yl]acetic acid], the EC50 in assay [1] (setting [3]) came to 369 nM. In assay [2], the Kd is 47.7 nM.

Turning to `COc1ccc2cc1CN1Cc3cc(ccc3OS1(=O)=O)OCc1ccccc1OCCCCn1nnc3c(C)c(ccc31)C2CC(=O)O` (single isomer, unassigned) [Example 53b, [4-Methoxy-39-methyl-35,35-dioxo-21,29,34-trioxa-35λ^6-thia-1,14,15,16-tetraazaheptacyclo[28.5.3.1^3,70.1^9,130.0^12,160.0^22,270.0^33,37]tetraconta-3(40),4,6,9(39),10,12,14,22,24,26,30,32,37-tridecaen-8-yl]acetic acid], the EC50 in assay [1] (setting [3]) is 899 nM. The Kd in assay [2] is 176 nM.

As to `COc1ccc2cc1CN1Cc3cc(ccc3OS1(=O)=O)OCc1ccccc1SCCCCn1nnc3c(C)c(ccc31)C2CC(=O)O` (single isomer, unassigned) [Example 54a], the EC50 in assay [1] (setting [4]) was 1290 nM. Besides, in assay [2], the Kd came out at 90.5 nM.

For `COc1ccc2cc1CN1Cc3cc(ccc3OS1(=O)=O)OCc1ccccc1SCCCCn1nnc3c(C)c(ccc31)C2CC(=O)O` (single isomer, unassigned) [Example 54b], the EC50 in assay [1] (setting [3]) worked out at 2270 nM. Also, the Kd in assay [2] worked out at 391 nM.

On to `Cc1ccc2cc1CN1Cc3cc(ccc3OS1(=O)=O)OCc1ccccc1OCCCn1nnc3c(C)c(ccc31)C2CC(=O)O` (single isomer, unassigned) [Example 57a, [4,38-Dimethyl-34,34-dioxo-20,28,33-trioxa-34λ^6-thia-1,14,15,16-tetraazaheptacyclo[27.5.3.1^3,70.1^9,130.0^12,160.0^21,260.0^32,36]nonatriaconta-3(39),4,6,9(38),10,12,14,21,23,25,29,31,36-tridecaen-8-yl]acetic acid], for which the EC50 in assay [1] (setting [3]) worked out at 496 nM. Besides, the Kd in assay [2] is 58.9 nM.
